Some results are limits rather than exact numbers.

Usually CC50 stands for the concentration at which the toxic effect on the cells reaches its halfway point. Low readings indicate harm at low concentration, high ones better tolerance by the cells. For orientation: EC50 means the midpoint of the concentration-response curve. Lower therefore signals greater potency.

A short description of data set [1]: CC50 assay in the anti-HCV replicon assay (CellTiter-Glo). Type of data set: cell-based, human. The conditions noted are these: human, Huh-7 hepatoma cells harbouring an HCV replicon; Huh-7 HCV replicon cells, 3 days incubation, CellTiter-Glo luminescence. In a few lines: (§1)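 Huh-7 cells harbouring an HCV replicon (6000/well) incubated 3 days at 37° C with 3-fold serially diluted compound (0.5% DMSO final where used). EC50 from luciferase luminescence of lysed cells; CC50 from CellTiter-Glo luminescence in parallel plates.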
In general terms: A replicon is a self-replicating genome or part of one, used to study replication in cells.

Data set [2] has as its system HCV replicon. Nature of the data set: Anti-HCV replicon assay, EC50 (luciferase readout). Type of data set: cell-based. The conditions noted are these: Hepatitis C virus, 72 h; Huh-7 HCV replicon cells, 3 days incubation, luciferase luminescence. The essentials: as §1

In data set [1], `CCOc1nc(N)nc2ccc(-c3ccc(C(=O)N(C)C)cc3)cc12` [Example 125, 4-(2-Amino-4-ethoxy-quinazolin-6-yl)-N,N-dimethyl-benzamide] yielded a half-maximal cytotoxic concentration (CC50) at 3 days of over 20 µM. In addition, the concentration giving a half-maximal response (EC50) in data set [2] was in the range of 0.3 to 1 µM.

In data set [1], `CCOc1nc(N)nc2ccc(-c3ccc(C(=O)N4CCCC4)cc3)cc12` [Example 126, [4-(2-Amino-4-ethoxy-quinazolin-6-yl)-phenyl]-pyrrolidin-1-yl-methanone] gave a CC50 at 3 days of over 20 µM. In data set [2], this compound came in with an EC50 of 1 to 10 µM.

Consider `CC(C)Oc1nc(N)nc2ccc(-c3ccc(C(=O)N(C)C)cc3)cc12` [Example 127, 4-(2-Amino-4-isopropoxy-quinazolin-6-yl)-N,N-dimethyl-benzamide], for which the CC50 at 3 days in data set [1] was over 20 µM. The concentration for a half-maximal effect (EC50) in data set [2] was in the range of 1 to 10 µM.

In data set [1], `CC(C)Oc1nc(N)nc2ccc(-c3ccc(C(=O)N4CCOCC4)cc3)cc12` [Example 128, [4-(2-Amino-4-isopropoxy-quinazolin-6-yl)-phenyl]-morpholin-4-yl-methanone] had a CC50 at 3 days of over 20 µM. For the same compound, the EC50 in data set [2] was 1 to 10 µM.

In the case of `CCOc1nc(N)nc2ccc(-c3ccc(C(=O)NCc4ccccc4)cc3)cc12` [Example 149, 4-(2-Amino-4-ethoxy-quinazolin-6-yl)-N-benzyl-benzamide], the CC50 at 3 days in data set [1] was over 20 µM. This compound also displayed an EC50 in data set [2] of 1 to 10 µM.

Consider `CCOc1nc(N)nc2ccc(-c3ccc(C(=O)NCC(C)C)cc3)cc12` [Example 150, 4-(2-Amino-4-ethoxy-quinazolin-6-yl)-N-isobutyl-benzamide], for which the CC50 at 3 days in data set [1] lay in the range of 10 to 20 µM. The compound also came in with an EC50 in data set [2] of 1 to 10 µM.

Turning to `CCOc1nc(N)nc2ccc(-c3ccc(C(=O)NC4CCCCC4)cc3)cc12` [Example 151, 4-(2-Amino-4-ethoxy-quinazolin-6-yl)-N-cyclohexyl-benzamide], in data set [1], the CC50 at 3 days was 10 to 20 µM. In addition, the EC50 in data set [2] is 1 to 10 µM.

For the compound `CCCCNC(=O)c1ccc(-c2ccc3nc(N)nc(OCC)c3c2)cc1` [Example 152, 4-(2-Amino-4-ethoxy-quinazolin-6-yl)-N-butyl-benzamide], the CC50 at 3 days in data set [1] is over 20 µM. Besides, the EC50 in data set [2] fell in the range of 0.3 to 1 µM.

With `CCOc1nc(N)nc2ccc(-c3ccc(C(=O)NC(C)(C)C)cc3)cc12` [Example 153, 4-(2-Amino-4-ethoxy-quinazolin-6-yl)-N-tert-butyl-benzamide], the half-maximal cytotoxic concentration (CC50) at 3 days in data set [1] was 10 to 20 µM. This compound showed an EC50 in data set [2] of 0.3 to 1 µM.

With `CCOc1nc(N)nc2ccc(-c3ccc(C(=O)NC4CCCC4)cc3)cc12` [Example 154, 4-(2-Amino-4-ethoxy-quinazolin-6-yl)-N-cyclopentyl-benzamide], in data set [1], the CC50 at 3 days fell in the range of 10 to 20 µM. Also, in data set [2], the EC50 lay within 0.3 to 1 µM.

Compound `CCOc1nc(N)nc2ccc(-c3ccc(C(=O)NC(C)C)cc3)cc12` [Example 155, 4-(2-Amino-4-ethoxy-quinazolin-6-yl)-N-isopropyl-benzamide] returned a CC50 at 3 days in data set [1] of 10 to 20 µM. In addition, in data set [2], the EC50 lay within 0.3 to 1 µM.

For the compound `CCOc1nc(N)nc2ccc(-c3ccc(C(=O)NOC)cc3)cc12` [Example 156, 4-(2-Amino-4-ethoxy-quinazolin-6-yl)-N-methoxy-benzamide], in data set [1], the CC50 at 3 days is over 20 µM. The compound also showed an EC50 in data set [2] of 0.3 to 1 µM.

In data set [1], `CCOc1nc(N)nc2ccc(-c3ccc(C(=O)NCc4ccco4)cc3)cc12` [Example 157, 4-(2-Amino-4-ethoxy-quinazolin-6-yl)-N-furan-2-ylmethyl-benzamide] had a half-maximal cytotoxic concentration (CC50) at 3 days of over 20 µM. In data set [2], this compound registered a concentration giving a half-maximal response (EC50) of 1 to 10 µM.

In data set [1], `CCOc1nc(N)nc2ccc(-c3ccc(C(=O)N4CCSC4)cc3)cc12` [Example 158, [4-(2-Amino-4-ethoxy-quinazolin-6-yl)-phenyl]-thiazolidin-3-yl-methanone] displayed a CC50 at 3 days of over 20 µM. For the same compound, in data set [2], the EC50 was in the range of 1 to 10 µM.

`CCOc1nc(N)nc2ccc(-c3ccc(C(=O)NCCN(C)C)cc3)cc12` [Example 159] gave a CC50 at 3 days in data set [1] of under 10 µM. The compound also displayed an EC50 in data set [2] of under 0.3 µM.

In turn, `CCOc1nc(N)nc2ccc(-c3ccc(C(=O)Nc4ccccn4)cc3)cc12` [Example 160, 4-(2-Amino-4-ethoxy-quinazolin-6-yl)-N-pyridin-2-yl-benzamide] came in with a CC50 at 3 days in data set [1] of over 20 µM. In data set [2], the 50% effective concentration (EC50) was 1 to 10 µM.

The compound `CCOc1nc(N)nc2ccc(-c3ccc(C(=O)Nc4ccc(F)cc4)cc3)cc12` [Example 161, 4-(2-Amino-4-ethoxy-quinazolin-6-yl)-N-(4-fluoro-phenyl)-benzamide] gave a CC50 at 3 days in data set [1] of under 10 µM. This compound registered an EC50 in data set [2] of 0.3 to 1 µM.

As for `CCOc1nc(N)nc2ccc(-c3ccc(C(=O)N4CCSCC4)cc3)cc12` [Example 162, [4-(2-Amino-4-ethoxy-quinazolin-6-yl)-phenyl]-thiomorpholin-4-yl-methanone], the CC50 at 3 days in data set [1] is over 20 µM. Besides, in data set [2], the EC50 fell in the range of 1 to 10 µM.

As to `CCOc1nc(N)nc2ccc(-c3ccc(C(=O)NC4=NCCS4)cc3)cc12` [Example 163, 4-(2-Amino-4-ethoxy-quinazolin-6-yl)-N-(4,5-dihydro-thiazol-2-yl)-benzamide], the CC50 at 3 days in data set [1] is over 20 µM. For the same compound, the EC50 in data set [2] lay in the range of 1 to 10 µM.

`CCOc1nc(N)nc2ccc(-c3ccc(C(=O)NC)c(Cl)c3)cc12` [Example 164, 4-(2-Amino-4-ethoxy-quinazolin-6-yl)-2-chloro-N-methyl-benzamide] came in with a CC50 at 3 days in data set [1] of over 20 µM. The EC50 in data set [2] was in the range of 1 to 10 µM.

Compound `CCOc1nc(N)nc2ccc(-c3ccc(C(=O)NC4CC4)c(Cl)c3)cc12` [Example 165, 4-(2-Amino-4-ethoxy-quinazolin-6-yl)-2-chloro-N-cyclopropyl-benzamide] gave a CC50 at 3 days in data set [1] of over 20 µM. Also, the EC50 in data set [2] is 1 to 10 µM.

The compound `CCOc1nc(N)nc2ccc(-c3cccc(O)c3)cc12` [Example 166, 3-(2-Amino-4-ethoxy-quinazolin-6-yl)-phenol] returned a CC50 at 3 days in data set [1] of 10 to 20 µM. This compound also returned an EC50 in data set [2] of 1 to 10 µM.

Consider `CCOc1nc(N)nc2ccc(-c3ccc(C(=O)NC4CC4)cc3)cc12` [Example 167, 4-(2-Amino-4-ethoxy-quinazolin-6-yl)-N-cyclopropyl-benzamide], for which the CC50 at 3 days in data set [1] was over 20 µM. Also, the EC50 in data set [2] is under 0.3 µM.

Compound `CCOc1nc(N)nc2ccc(-c3cccc(C(=O)NC)c3)cc12` [Example 168, 3-(2-Amino-4-ethoxy-quinazolin-6-yl)-N-methyl-benzamide] had a CC50 at 3 days in data set [1] of over 20 µM. Also, in data set [2], the half-maximal effective concentration (EC50) was in the range of 1 to 10 µM.

Take `CC(C)Oc1nc(N)nc2ccc(-c3ccc(C(=O)N4CCCCC4)cc3)cc12` [Example 169, [4-(2-Amino-4-isopropoxy-quinazolin-6-yl)-phenyl]-piperidin-1-yl-methanone]: the CC50 at 3 days in data set [1] is over 20 µM. The compound also gave an EC50 in data set [2] of 1 to 10 µM.

As for `CC(C)Oc1nc(N)nc2ccc(-c3ccc(C(=O)NCc4ccccc4)cc3)cc12` [Example 170, 4-(2-Amino-4-isopropoxy-quinazolin-6-yl)-N-benzyl-benzamide], the CC50 at 3 days in data set [1] is under 10 µM. The EC50 in data set [2] was 0.3 to 1 µM.

In data set [1], `CC(C)CNC(=O)c1ccc(-c2ccc3nc(N)nc(OC(C)C)c3c2)cc1` [Example 171, 4-(2-Amino-4-isopropoxy-quinazolin-6-yl)-N-isobutyl-benzamide] displayed a CC50 at 3 days of 10 to 20 µM. In addition, the EC50 in data set [2] was in the range of 0.3 to 1 µM.

Compound `CC(C)Oc1nc(N)nc2ccc(-c3ccc(C(=O)NC4CCCCC4)cc3)cc12` [Example 172, 4-(2-Amino-4-isopropoxy-quinazolin-6-yl)-N-cyclohexyl-benzamide] returned a CC50 at 3 days in data set [1] of under 10 µM. For the same compound, the EC50 in data set [2] lay in the range of 0.3 to 1 µM.

In data set [1], `CCCCNC(=O)c1ccc(-c2ccc3nc(N)nc(OC(C)C)c3c2)cc1` [Example 173, 4-(2-Amino-4-isopropoxy-quinazolin-6-yl)-N-butyl-benzamide] showed a CC50 at 3 days of under 10 µM. This compound also displayed an EC50 in data set [2] of under 0.3 µM.

Compound `CC(C)Oc1nc(N)nc2ccc(-c3ccc(C(=O)NC(C)(C)C)cc3)cc12` [Example 174, 4-(2-Amino-4-isopropoxy-quinazolin-6-yl)-N-tert-butyl-benzamide] had a cytotoxic concentration (CC50) at 3 days in data set [1] of 10 to 20 µM. Also, in data set [2], the EC50 was in the range of 0.3 to 1 µM.

Turning to `CC(C)Oc1nc(N)nc2ccc(-c3ccc(C(=O)NC4CCCC4)cc3)cc12` [Example 175, 4-(2-Amino-4-isopropoxy-quinazolin-6-yl)-N-cyclopentyl-benzamide], the half-maximal cytotoxic concentration (CC50) at 3 days in data set [1] is under 10 µM. This compound also registered an EC50 in data set [2] of under 0.3 µM.

In data set [1], `CC(C)NC(=O)c1ccc(-c2ccc3nc(N)nc(OC(C)C)c3c2)cc1` [Example 176, 4-(2-Amino-4-isopropoxy-quinazolin-6-yl)-N-isopropyl-benzamide] gave a CC50 at 3 days of 10 to 20 µM. Moreover, in data set [2], the EC50 is under 0.3 µM.

Regarding `CONC(=O)c1ccc(-c2ccc3nc(N)nc(OC(C)C)c3c2)cc1` [Example 177, 4-(2-Amino-4-isopropoxy-quinazolin-6-yl)-N-methoxy-benzamide], the cytotoxic concentration (CC50) at 3 days in data set [1] lay in the range of 10 to 20 µM. The EC50 in data set [2] was under 0.3 µM.

In data set [1], `CC(C)Oc1nc(N)nc2ccc(-c3ccc(C(=O)NCCN(C)C)cc3)cc12` [Example 178, 4-(2-Amino-4-isopropoxy-quinazolin-6-yl)-N-(2-dimethylamino-ethyl)-benzamide] returned a 50% cytotoxic concentration (CC50) at 3 days of under 10 µM. This compound also had an EC50 in data set [2] of under 0.3 µM.

In turn, `CC(C)Oc1nc(N)nc2ccc(-c3ccc(C(=O)Nc4ccc(F)cc4)cc3)cc12` [Example 179, 4-(2-Amino-4-isopropoxy-quinazolin-6-yl)-N-(4-fluoro-phenyl)-benzamide] showed a CC50 at 3 days in data set [1] of under 10 µM. Further, the EC50 in data set [2] was 0.3 to 1 µM.

In data set [1], `CC(C)Oc1nc(N)nc2ccc(-c3ccc(C(=O)N4CCSCC4)cc3)cc12` [Example 180, [4-(2-Amino-4-isopropoxy-quinazolin-6-yl)-phenyl]-thiomorpholin-4-yl-methanone] returned a CC50 at 3 days of 10 to 20 µM. Moreover, in data set [2], the EC50 fell in the range of 1 to 10 µM.

Take `CC(C)Oc1nc(N)nc2ccc(-c3ccc(C(=O)NC4=NCCS4)cc3)cc12` [Example 181, 4-(2-Amino-4-isopropoxy-quinazolin-6-yl)-N-(4,5-dihydro-thiazol-2-yl)-benzamide]: the CC50 at 3 days in data set [1] lay in the range of 10 to 20 µM. In addition, the EC50 in data set [2] was 0.3 to 1 µM.

(Values after patent US8673929B2, “4,6-di- and 2,4,6-trisubstituted quinazoline derivatives and pharmaceutical compositions useful for treating viral infections” (priority 2006, dated 2014).)
